Counter-ions that a name gives are not always drawn.
biological target: cloned human NR1/NR2B ion channels (Homo sapiens (Human), UniProt Q05586+Q13224); experiment: HNR2BC: effects of test articles on cloned human NR1/NR2B ion channels expressed in mammalian cells (FLIPR calcium flux); format: cell-based; details: cloned human NR1/NR2B, Table 5
Description: HNR2BC: Effects of Test Articles on Cloned Human NR1/NR2B Ion Channels Expressed in Mammalian Cells
NMDA receptors are ion channels that are highly permeable to Ca^2+ ions, rendering it possible to monitor NMDA receptor function using cell-based calcium flux assay. In this assay, co-agonists glutamate and glycine are added to cells heterologously expressing human GluN1/GluN2B NMDA receptors to initiate cellular Ca^2+ influx. The time course of the changes in intracellular calcium is measured using a fluorescent dye and a FLIPR (Fluorometric Imaging Plate Reader) device.
Twenty four hours before measurements, the expression of the NMDA receptors in the stable cell line is induced with Tet-On inducible system in the presence of a non-selective NMDA receptor blocker. On the day of the experiment, cell culture media is carefully washed and the cells are loaded with Calcium 5 Dye Kit (Molecular Devices) in dye loading buffer containing 137 mM NaCl, 4 mM KCl, 2 mM CaCl2, 0.5 mM MgCl2, 10 mM HEPES and 5 mM D-glucose; pH 7.4. After 1 h incubation at the room temperature, the dye is washed away with the assay buffer (137 mM NaCl, 4 mM KCl, 2 mM CaCl2, 0.01 mM EDTA, 10 mM HEPES and 5 mM D-glucose; pH 7.4) In the FLIPR TETRA reader, various concentrations of the test compounds are added to the cells for 5 min while fluorescence is monitored to detect potential agonist activity. Next, co-agonists, glutamate and glycine are added for another 5 minutes. The concentration of glutamate corresponding to ˜EC80 is used to maximize the assay's signal window and ability to detect NMDA receptor antagonists and negative allosteric modulators. A saturating concentration (10 μM) of glycine is also present in the assay. […] The fluorescent signal in the presence of test compounds is quantified and normalized to the signal defined by the appropriate control wells.

Chain of cloned human NR1/NR2B ion channels (Q13224 27-1484, other chains not shown): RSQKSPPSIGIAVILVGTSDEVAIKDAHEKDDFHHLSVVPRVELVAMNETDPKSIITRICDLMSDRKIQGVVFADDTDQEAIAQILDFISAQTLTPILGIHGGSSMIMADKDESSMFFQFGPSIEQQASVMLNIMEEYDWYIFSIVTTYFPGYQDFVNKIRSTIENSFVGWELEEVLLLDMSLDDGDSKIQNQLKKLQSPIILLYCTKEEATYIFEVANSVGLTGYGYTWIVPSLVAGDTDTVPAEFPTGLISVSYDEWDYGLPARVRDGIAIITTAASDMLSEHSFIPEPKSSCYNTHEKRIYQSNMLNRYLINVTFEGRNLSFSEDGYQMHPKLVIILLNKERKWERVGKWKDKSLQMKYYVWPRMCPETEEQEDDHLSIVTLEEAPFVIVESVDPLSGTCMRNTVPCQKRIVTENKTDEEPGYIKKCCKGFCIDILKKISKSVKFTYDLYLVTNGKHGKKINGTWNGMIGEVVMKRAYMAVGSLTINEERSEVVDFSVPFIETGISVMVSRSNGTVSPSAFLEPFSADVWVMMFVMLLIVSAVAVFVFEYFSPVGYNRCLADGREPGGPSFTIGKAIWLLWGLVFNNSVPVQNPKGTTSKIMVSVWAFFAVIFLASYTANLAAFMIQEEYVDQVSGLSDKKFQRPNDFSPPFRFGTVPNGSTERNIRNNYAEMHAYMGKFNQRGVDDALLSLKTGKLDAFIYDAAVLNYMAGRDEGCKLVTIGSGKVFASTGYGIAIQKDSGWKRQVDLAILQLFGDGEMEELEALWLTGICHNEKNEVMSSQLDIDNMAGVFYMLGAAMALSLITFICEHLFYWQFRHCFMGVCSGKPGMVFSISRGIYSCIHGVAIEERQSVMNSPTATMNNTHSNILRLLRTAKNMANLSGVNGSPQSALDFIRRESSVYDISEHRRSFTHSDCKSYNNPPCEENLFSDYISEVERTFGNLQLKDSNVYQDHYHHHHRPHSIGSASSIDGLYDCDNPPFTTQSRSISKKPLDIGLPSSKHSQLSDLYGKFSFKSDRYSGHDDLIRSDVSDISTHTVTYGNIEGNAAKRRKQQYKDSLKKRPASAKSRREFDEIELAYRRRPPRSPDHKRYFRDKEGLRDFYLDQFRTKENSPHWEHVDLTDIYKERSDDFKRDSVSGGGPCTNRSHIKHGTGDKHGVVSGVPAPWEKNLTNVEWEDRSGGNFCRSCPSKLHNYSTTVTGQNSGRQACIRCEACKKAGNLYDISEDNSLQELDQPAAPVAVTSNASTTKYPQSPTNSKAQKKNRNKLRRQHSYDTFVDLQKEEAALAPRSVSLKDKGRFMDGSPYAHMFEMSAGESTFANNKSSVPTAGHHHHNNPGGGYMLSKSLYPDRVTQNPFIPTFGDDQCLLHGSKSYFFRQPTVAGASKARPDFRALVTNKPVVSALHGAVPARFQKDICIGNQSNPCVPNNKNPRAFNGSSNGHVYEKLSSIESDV

**Q.** Which IC50 does the source give for `Cc1cc(-c2cnc3ccn(CC4CO4)c3c2)ccc1F` (racemic) [Example 180, (R/S)-6-(4-Fluoro-3-methyl-phenyl)-1-(oxiran-2-ylmethyl)pyrrolo[3,2-b]pyridine trifluoroacetate salt] here?
**A.** The IC50 was 0.794 µM.

**Q.** Which IC50 does the source give for `Cc1cc(-c2cnc3ccn(CC4CCO4)c3c2)ccc1F` (racemic) [Example 184, (R/S)-6-(4-Fluoro-3-methyl-phenyl)-1-(oxetan-2-ylmethyl)pyrrolo[3,2-b]pyridine trifluoroacetate salt] here?
**A.** The IC50 was 0.501 µM.

**Q.** With `Cc1cc(-c2cnc3ccn(CC(=O)N4CC5CC5C4)c3c2)ccc1F` (racemic) [Example 189, (R/S)-1-(3-Azabicyclo[3.1.0]hexan-3-yl)-2-[6-(4-fluoro-3-methyl-phenyl)pyrrolo[3,2-b]pyridin-1-yl]ethanone trifluoroacetate salt] as the compound, how does the IC50 read?
**A.** Its IC50 is 0.126 µM.

**Q.** For `Cc1cc(-c2cnc3ccn(CC(=O)N4CCOC(C)C4)c3c2)ccc1F` (racemic) [Example 194, (R/S)-2-[6-(4-Fluoro-3-methyl-phenyl)pyrrolo[3,2-b]pyridin-1-yl]-1-(2-methylmorpholin-4-yl)ethanone trifluoroacetate salt], which IC50 is on record?
**A.** Its IC50 is 0.158 µM.

**Q.** For `Cc1cc(-c2cnc3ccn(CC(=O)N4CCCC(C(F)(F)F)C4)c3c2)ccc1F` (racemic) [Example 195, (R/S)-2-[6-(4-Fluoro-3-methyl-phenyl)pyrrolo[3,2-b]pyridin-1-yl]-1-[3-(trifluoromethyl)-1-piperidyl]ethanone trifluoroacetate salt], which IC50 is on record?
**A.** Its IC50 is 0.398 µM.

**Q.** Which IC50 does the source give for `CCC1CCCN1C(=O)Cn1ccc2ncc(-c3ccc(F)c(C)c3)cc21` (racemic) [Example 196, (R/S)-1-(2-Ethylpyrrolidin-1-yl)-2-[6-(4-fluoro-3-methyl-phenyl)pyrrolo[3,2-b]pyridin-1-yl]ethanone trifluoroacetate salt] here?
**A.** The IC50 was 1.26 µM.

**Q.** How did the IC50 turn out when `COC1CCN(C(=O)Cn2ccc3ncc(-c4ccc(F)c(C)c4)cc32)C1` (racemic) [Example 198, (R/S)-2-[6-(4-Fluoro-3-methyl-phenyl)pyrrolo[3,2-b]pyridin-1-yl]-1-(3-methoxypyrrolidin-1-yl)ethanone trifluoroacetate salt] was run?
**A.** The IC50 was 1 µM.

**Q.** For `Cc1cc(-c2cnc3ccn(CC(=O)N4CCCC(F)C4)c3c2)ccc1F` (racemic) [Example 199, (R/S)-2-[6-(4-Fluoro-3-methyl-phenyl)pyrrolo[3,2-b]pyridin-1-yl]-1-(3-fluoro-1-piperidyl)ethanone trifluoroacetate salt], which IC50 is on record?
**A.** The IC50 was 0.2 µM.

**Q.** For `Cc1cc(-c2cnc3ccn(CC(=O)N4CCOCC4C)c3c2)ccc1F` (racemic) [Example 210, (R/S)-2-[6-(4-Fluoro-3-methyl-phenyl)pyrrolo[3,2-b]pyridin-1-yl]-1-(3-methylmorpholin-4-yl)ethanone trifluoroacetate salt], which IC50 is on record?
**A.** Its IC50 is 0.398 µM.

**Q.** Which IC50 does the source give for `O=C(Cn1ccc2ncc(-c3ccc(F)cc3)cc21)N1CCC(O)C1` (racemic) [Example 218, (R/S)-2-[6-(4-Fluorophenyl)pyrrolo[3,2-b]pyridin-1-yl]-1-(3-hydroxypyrrolidin-1-yl)ethanone] here?
**A.** Its IC50 is 0.398 µM.

**Q.** Which IC50 does the source give for `Fc1ccc(-c2cnc3ccn(CC4CCCCO4)c3c2)cc1` (racemic) [Example 228, (R/S)-6-(4-Fluorophenyl)-1-(tetrahydropyran-2-ylmethyl)pyrrolo[3,2-b]pyridine trifluoroacetate salt] here?
**A.** The IC50 was 0.631 µM.

**Q.** How did the IC50 turn out when `CC(NC(=O)Cn1ccc2ncc(-c3ccc(F)cc3)cc21)C(F)(F)F` (racemic) [Example 231, (R/S)-2-[6-(4-Fluorophenyl)pyrrolo[3,2-b]pyridin-1-yl]-N-(2,2,2-trifluoro-1-methyl-ethyl)acetamide] was run?
**A.** The IC50 was 2 µM.

**Q.** For `CC(C)C(O)Cn1ccc2ncc(-c3cc(F)cc(F)c3)cc21` (racemic) [Example 272], which IC50 is on record?
**A.** The IC50 was 0.0251 µM.

**Q.** `Cc1cc(-c2cnc3ccn(CC(C)(O)C4CC4)c3c2)ccc1F` (racemic) [Example 275, (R/S)-2-Cyclopropyl-1-[6-(4-fluoro-3-methyl-phenyl)pyrrolo[3,2-b]pyridin-1-yl]propan-2-ol trifluoroacetate salt] was tested. Which IC50 did it give?
**A.** The IC50 was 0.158 µM.

**Q.** For `Cc1cc(-c2cnc3ccn(CC(F)C4CC4)c3c2)ccc1F` (racemic) [Example 289, (R/S)-1-(2-Cyclopropyl-2-fluoro-ethyl)-6-(4-fluoro-3-methyl-phenyl)pyrrolo[3,2-b]pyridine], which IC50 is on record?
**A.** The IC50 was 0.0794 µM.

**Q.** With `Cc1cc(-c2cnc3ccn(C[S+](C)[O-])c3c2)ccc1F` (racemic) [Example 331, (R/S)-6-(4-Fluoro-3-methyl-phenyl)-1-(methylsulfinylmethyl)pyrrolo[3,2-b]pyridine] as the compound, how does the IC50 read?
**A.** Its IC50 is 3.98 µM.

**Q.** With `O=C(Cn1ccc2ncc(-c3ccc(F)cc3)cc21)N1CC[C@H](F)C1` (single isomer, unassigned) [Example 293, trifluoroacetate salt] as the compound, how does the IC50 read?
**A.** The IC50 was 0.0316 µM.

**Q.** `O=C(Cn1cc(Cl)c2ncc(-c3ccccc3)cc21)NC1CC1` [Example 1, 2-(3-Chloro-6-phenyl-pyrrolo[3,2-b]pyridin-1-yl)-N-cyclopropyl-acetamide] was tested. Which IC50 did it give?
**A.** Its IC50 is 0.316 µM.

**Q.** How did the IC50 turn out when `O=C(Cn1cc(Cl)c2ncc(-c3ccc(F)cc3)cc21)NC1CC1` [Example 2, 2-[3-Chloro-6-(4-fluorophenyl)pyrrolo[3,2-b]pyridin-1-yl]-N-cyclopropyl-acetamide] was run?
**A.** Its IC50 is 0.126 µM.

**Q.** `O=C(Cn1cc(Cl)c2ncc(-c3ccc(F)cc3)cc21)N1CCC1` [Example 3, 1-(Azetidin-1-yl)-2-[3-chloro-6-(4-fluorophenyl)pyrrolo[3,2-b]pyridin-1-yl]ethanone] was tested. Which pIC50 did it give?
**A.** The pIC50 was 7.6.

**Q.** With `O=C(Cn1cc(Cl)c2ncc(-c3ccccc3)cc21)N1CCCC1` [Example 4, 2-(3-Chloro-6-phenyl-pyrrolo[3,2-b]pyridin-1-yl)-1-pyrrolidin-1-yl-ethanone] as the compound, how does the IC50 read?
**A.** The IC50 was 0.0501 µM.

**Q.** `O=C(Cn1cc(Cl)c2ncc(-c3ccccc3)cc21)N1CCOCC1` [Example 5, 2-(3-Chloro-6-phenyl-pyrrolo[3,2-b]pyridin-1-yl)-1-morpholino-ethanone] was tested. Which IC50 did it give?
**A.** The IC50 was 0.2 µM.

**Q.** Which IC50 does the source give for `O=C(Cn1cc(Cl)c2ncc(-c3ccccc3)cc21)N1CCC1` [Example 6, 1-(Azetidin-1-yl)-2-(3-chloro-6-phenyl-pyrrolo[3,2-b]pyridin-1-yl)ethanone] here?
**A.** Its IC50 is 0.0501 µM.

**Q.** `O=C(Cn1cc(Cl)c2ncc(-c3ccc(F)cc3)cc21)N1CCOCC1` [Example 7, 2-[3-Chloro-6-(4-fluorophenyl)pyrrolo[3,2-b]pyridin-1-yl]-1-morpholino-ethanone] was tested. Which IC50 did it give?
**A.** The IC50 was 0.158 µM.

**Q.** `Cc1cccc(-c2cnc3c(Cl)cn(CC(=O)N4CCC4)c3c2)c1` [Example 8, 1-(Azetidin-1-yl)-2-[3-chloro-6-(m-tolyl)pyrrolo[3,2-b]pyridin-1-yl]ethanone] was tested. Which IC50 did it give?
**A.** Its IC50 is 0.0316 µM.

**Q.** `O=C(Cn1cc(Cl)c2ncc(-c3ccc(F)cc3)cc21)N1CCCC1` [Example 9, 2-[3-Chloro-6-(4-fluorophenyl)pyrrolo[3,2-b]pyridin-1-yl]-1-pyrrolidin-1-yl-ethanone] was tested. Which IC50 did it give?
**A.** The IC50 was 0.0631 µM.

**Q.** Which IC50 does the source give for `Cc1cccc(-c2cnc3c(Cl)cn(CC(=O)NC4CC4)c3c2)c1` [Example 10, 2-[3-Chloro-6-(m-tolyl)pyrrolo[3,2-b]pyridin-1-yl]-N-cyclopropyl-acetamide] here?
**A.** Its IC50 is 0.0501 µM.

**Q.** With `O=C(Cn1cc(Br)c2ncc(-c3ccccc3)cc21)N1CCC1` [Example 11, 1-(Azetidin-1-yl)-2-(3-bromo-6-phenyl-pyrrolo[3,2-b]pyridin-1-yl)ethanone] as the compound, how does the IC50 read?
**A.** The IC50 was 0.0251 µM.

**Q.** Which IC50 does the source give for `Cc1cccc(-c2cnc3c(Cl)cn(CC(=O)N4CCCC4)c3c2)c1` [Example 12, 2-[3-Chloro-6-(m-tolyl)pyrrolo[3,2-b]pyridin-1-yl]-1-pyrrolidin-1-yl-ethanone] here?
**A.** The IC50 was 0.0398 µM.

**Q.** How did the IC50 turn out when `Cc1cccc(-c2cnc3c(Cl)cn(CC(=O)N4CCOCC4)c3c2)c1` [Example 13, 2-[3-Chloro-6-(m-tolyl)pyrrolo[3,2-b]pyridin-1-yl]-1-morpholino-ethanone] was run?
**A.** Its IC50 is 0.0501 µM.

**Q.** With `O=C(Cn1cc(Br)c2ncc(-c3ccccc3)cc21)NC1CC1` [Example 14, 2-(3-Bromo-6-phenyl-pyrrolo[3,2-b]pyridin-1-yl)-N-cyclopropyl-acetamide] as the compound, how does the IC50 read?
**A.** The IC50 was 0.126 µM.

**Q.** For `O=C(Cn1cc(Br)c2ncc(-c3ccccc3)cc21)N1CCCC1` [Example 15, 2-(3-Bromo-6-phenyl-pyrrolo[3,2-b]pyridin-1-yl)-1-pyrrolidin-1-yl-ethanone], which IC50 is on record?
**A.** The IC50 was 0.0398 µM.

**Q.** With `O=C(Cn1cc(Br)c2ncc(-c3ccccc3)cc21)N1CCOCC1` [Example 16, 2-(3-Bromo-6-phenyl-pyrrolo[3,2-b]pyridin-1-yl)-1-morpholino-ethanone] as the compound, how does the IC50 read?
**A.** Its IC50 is 0.0794 µM.

**Q.** Which IC50 does the source give for `O=C(Cn1cc(Br)c2ncc(-c3ccc(F)cc3)cc21)NC1CC1` [Example 17, 2-[3-Bromo-6-(4-fluorophenyl)pyrrolo[3,2-b]pyridin-1-yl]-N-cyclopropyl-acetamide] here?
**A.** Its IC50 is 0.0501 µM.

**Q.** With `O=C(Cn1cc(Br)c2ncc(-c3ccc(F)cc3)cc21)N1CCC1` [Example 18, 1-(Azetidin-1-yl)-2-[3-bromo-6-(4-fluorophenyl)pyrrolo[3,2-b]pyridin-1-yl]ethanone] as the compound, how does the IC50 read?
**A.** Its IC50 is 0.02 µM.

**Q.** For `O=C(Cn1cc(Br)c2ncc(-c3ccc(F)cc3)cc21)N1CCCC1` [Example 19, 2-[3-Bromo-6-(4-fluorophenyl)pyrrolo[3,2-b]pyridin-1-yl]-1-pyrrolidin-1-yl-ethanone], which IC50 is on record?
**A.** Its IC50 is 0.0316 µM.

From US10377753B2, “Substituted 4-azaindoles and their use as GluN2B receptor modulators” (Janssen Pharmaceutica NV, priority 2015, dated 2019)
